Data as given in patent publication US20260317304A1, “TEAD INHIBITORS AND METHODS OF USE” (Sporos BioDiscovery, Inc., priority 2022, published 2026).

Columns and labels:
[1] = test system: MSTO-211H xenograft; test: Mouse xenograft MSTO-211H tumors, study part 3; type: in vivo, BALB/c nude mice; conditions: PO
Text: (§1) This study evaluated the in vivo anti-tumor efficacy of test compounds in BALB/c nude mice for treatment of MSTO-211H xenograft of lung cancer.
(§2) • Species: Mus Musculus • Strain: BALB/c nude • Age: 6-8 weeks • Sex: female • Body weight: 18-22 g • Number of animals inoculated with tumor: 80 mice • Number of animals enrolled in the treatment: 36 mice • Number of unenrolled animals: 44 mice • Animal supplier: Beijing Vital River Biotechnology Experimental Animal Co. Ltd Certification number: 20170011010591
(§3) The MSTO-211H tumor cells were maintained in RPMI 1640 medium supplemented with 10% Fetal bovine serum and 1% Antibiotic-Antimycotic at 37° C. in an atmosphere of 5% CO2 in air. The tumor cells were routinely subcultured twice weekly by trypsin-EDTA. The cells growing in an exponential growth phase with 95% cell survival or above were harvested, and counted for tumor inoculation.
(§4) Each mouse was inoculated subcutaneously at the right flank with MSTO-211H tumor cells (5×10^6+50% matrigel/0.2 mL) for tumor development. Animals were marked with earrings with unique 6 significant figure number for identification. The treatments of part 1 were started on day 5 after cell inoculation when the average tumor volume reached 181 mm^3. The treatments of part 2 were started on day 16 after cell inoculation when the average tumor volume reached 254 mm^3. The treatments of part 3 were started on day 33 after cell inoculation when the average tumor volume reached 969 mm^3.
(§5) The major endpoint was to determine if the tumor growth could be delayed. Tumor volume was measured twice a week in two dimensions using a caliper, and the volume was expressed in mm^3 using the formula: V=0.5 a×b^2 where a and b are the long and short diameters of the tumor, respectively. The tumor size was then used for calculations of T/C value. The TGI value (in percent) or the T/C value (in percent) is an indication of antitumor effectiveness; T and C are the mean tumor volumes or tumor weights of the treated and control groups, respectively, on a given day.
(§6) TGI was calculated for each group using the formula: TGI (%)=[1−(Ti−T0)/(Vi−V0)]×100; Ti is the average tumor volume of a treatment group on a given day, T0 is the average tumor volume of the treatment group on the day of treatment start, Vi is the average tumor volume of the vehicle control group on the same day with Ti, and V0 is the average tumor volume of the vehicle group on the day of treatment start.
(§7) Relative T/C (%)=TRTV/CRTV×100 (RTV (%)=Vt/V0×100, Vt is the average tumor volume on a given day, V0 is the average tumor volume on the first day of treatment. TRTV is the RTV of a treatment group, and the CRTV is the RTV of the vehicle control group.)
The antitumor effectiveness of part 3 study was analyzed on PG-D13 when vehicle group reached 1791 mm^3.
(§8) Summary statistics, including mean and the standard error of the mean (SEM), were provided for the tumor volume of each group at each time point.
(§9) Statistical analysis of difference in tumor volume among the groups was conducted on the data obtained at the end of the study.
(§10) One-tailed T test was performed to compare tumor volumes between two groups. All data are analyzed using GraphPad Prism 6.0. p<0.05 is considered to be statistically significant.

[2] = test system: MSTO-211H xenograft; test: Mouse xenograft MSTO-211H tumors, study part 2; type: in vivo, BALB/c nude mice; conditions: PO
Text: as §1, §2, §3, §4, §5, §6, §7
The antitumor effectiveness of part 2 study was analyzed on PG-D30 when vehicle group reached 738 mm^3.
as §8, §9, §10

[3] = part 3, day 13, 12.5 mg/kg, BID
[4] = part 2, day 30, 12.5 mg/kg, BID

For `Cn1nnc(-c2cc([C@]3(C)CCNC3=O)ccc2Nc2ccc(C(F)(F)F)cc2)n1` (stereo in doubt) [Compound 20, 3-methyl-3-(3-(2-methyl-2H-tetrazol-5-yl)-4-((4-(trifluoromethyl)phenyl)amino)phenyl) pyrrolidin-2-one], the Tumor size ([1]; part 3, day 0, 12.5 mg/kg, BID) was 963 ± 136 mm^3, the Tumor size ([1]; part 3, day 3, 12.5 mg/kg, BID) was 740 ± 122 mm^3 and the Tumor size ([1]; part 3, day 6, 12.5 mg/kg, BID) was 591 ± 61 mm^3. It also gave a Tumor size ([1]; part 3, day 10, 12.5 mg/kg, BID) of 444 ± 36 mm^3, a T/C [1, 3] of 18.94% and a TGI [1, 3] of 177.56%. For the same compound, the Tumor size [1, 3] was 339 ± 51 mm^3, the “Tumor Volume” value ([1]; part 3, day 13, 12.5 mg/kg, BID (Table 18)) was 339 ± 51 mm^3 and the Tumor size ([2]; part 2, day 0, 12.5 mg/kg, BID) was 254 ± 30 mm^3. It also gave a Tumor size ([2]; part 2, day 2, 12.5 mg/kg, BID) of 249 ± 37 mm^3, a Tumor size ([2]; part 2, day 6, 12.5 mg/kg, BID) of 160 ± 39 mm^3 and a Tumor size ([2]; part 2, day 9, 12.5 mg/kg, BID) of 116 ± 36 mm^3. It also gave a Tumor size ([2]; part 2, day 12, 12.5 mg/kg, BID) of 80 ± 13 mm^3, a Tumor size ([2]; part 2, day 16, 12.5 mg/kg, BID) of 75 ± 10 mm^3 and a Tumor size ([2]; part 2, day 20, 12.5 mg/kg, BID) of 78 ± 14 mm^3. For the same compound, the Tumor size ([2]; part 2, day 23, 12.5 mg/kg, BID) was 91 ± 10 mm^3, the Tumor size ([2]; part 2, day 27, 12.5 mg/kg, BID) was 96 ± 6 mm^3 and the T/C [2, 4] was 22.24%. The TGI [2, 4] was 118.44%, the Tumor size [2, 4] was 164 ± 15 mm^3 and the “Tumor Volume” value ([2]; part 2, day 30, 12.5 mg/kg, BID (Table 17)) was 164 ± 15 mm^3.
